From ChEMBL document CHEMBL1201862, “PubChem BioAssay data set” (2004)
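The compound was tested at five concentrations on cells cultured in 96-well plates, with a 48-hour exposure period. Here, GI50 denotes the concentration required for 50% inhibition of growth.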 Activity calls are given as the source filed them. Cut-off read from the data, not from the text of the source: active = GI50 up to about 1.1 µM and inactive = higher.

What was measured:
Test in all cases: DTP human tumour cell line panel, 48 h
TK-10 = test system: TK-10
HCT-116 = test system: HCT-116
KM12 = test system: KM12
UACC-257 = test system: UACC-257
OVCAR-3 = test system: OVCAR-3
SW-620 = test system: SW-620
HL-60 = test system: HL-60
RXF 393 = test system: RXF 393
ACHN = test system: ACHN
OVCAR-4 = test system: OVCAR-4
SN12C = test system: SN12C
HT-29 = test system: HT-29
SK-MEL-2 = test system: SK-MEL-2
NCI-H460 = test system: NCI-H460
MOLT-4 = test system: MOLT-4
SR = test system: SR

Measured: GI50

O=C(O)c1oc2cccc3c2c1CCC3
inactive: TK-10 > 100 µM | HCT-116 > 100 µM | KM12 > 100 µM | UACC-257 > 100 µM | OVCAR-3 > 100 µM | SW-620 > 100 µM | HL-60 > 100 µM | RXF 393 > 100 µM | ACHN > 100 µM | OVCAR-4 > 100 µM | SN12C > 100 µM | HT-29 > 100 µM | SK-MEL-2 > 100 µM | NCI-H460 > 100 µM | MOLT-4 > 100 µM | SR > 100 µM

O=C(NCC(=O)N1CCOC1=O)OCc1ccccc1
inactive: TK-10 > 100 µM | HCT-116 > 100 µM | KM12 > 100 µM | UACC-257 > 100 µM | OVCAR-3 > 100 µM | SW-620 > 100 µM | HL-60 > 100 µM | RXF 393 > 100 µM | ACHN > 100 µM | OVCAR-4 > 100 µM | SN12C > 100 µM | HT-29 > 100 µM | SK-MEL-2 > 100 µM | NCI-H460 > 100 µM | MOLT-4 > 100 µM

OC1=CN=C(c2ccccc2)Oc2ccccc21
inactive: TK-10 > 100 µM | HCT-116 45.4 µM | KM12 50.9 µM | UACC-257 > 100 µM | OVCAR-3 15.3 µM | SW-620 > 100 µM | HL-60 > 100 µM | RXF 393 > 100 µM | ACHN > 100 µM | OVCAR-4 47.6 µM | SN12C > 100 µM | HT-29 > 100 µM | SK-MEL-2 > 100 µM | NCI-H460 > 100 µM | MOLT-4 > 100 µM

Cc1cc(N(CCC#N)S(=O)(=O)c2ccccc2)ccc1/C=C1\N=C(c2ccc(Cl)cc2)OC1=O
inactive: HCT-116 > 100 µM | KM12 > 100 µM | UACC-257 > 100 µM | OVCAR-3 > 100 µM | SW-620 > 100 µM | HL-60 > 100 µM | RXF 393 > 100 µM | ACHN > 100 µM | OVCAR-4 > 100 µM | SN12C > 100 µM | HT-29 > 100 µM | SK-MEL-2 > 100 µM | NCI-H460 > 100 µM | MOLT-4 > 100 µM

CN(O)C(=O)Cc1ccccc1
inactive: TK-10 > 100 µM | HCT-116 > 100 µM | KM12 > 100 µM | UACC-257 > 100 µM | OVCAR-3 > 100 µM | SW-620 > 100 µM | HL-60 > 100 µM | RXF 393 > 100 µM | ACHN > 100 µM | OVCAR-4 > 100 µM | SN12C > 100 µM | HT-29 > 100 µM | NCI-H460 > 100 µM | MOLT-4 > 100 µM | SR > 100 µM

C/C(=C\CNc1ncnc2c1ncn2C1CCCCO1)COP(=O)(O)O (stereo not given)
inactive: TK-10 > 100 µM | HCT-116 > 100 µM | KM12 > 100 µM | UACC-257 > 100 µM | OVCAR-3 > 100 µM | SW-620 > 100 µM | HL-60 > 100 µM | RXF 393 > 100 µM | ACHN > 100 µM | OVCAR-4 > 100 µM | SN12C > 100 µM | HT-29 > 100 µM | SK-MEL-2 > 100 µM | NCI-H460 > 100 µM | MOLT-4 > 100 µM | SR > 100 µM

COc1ccc2c(c1)N1CCc3cc(OC)c(OC)cc3C1C2 (stereo not given)
inactive: TK-10 > 100 µM | KM12 89.1 µM | UACC-257 57.9 µM | SW-620 > 100 µM | HL-60 26.2 µM | RXF 393 65 µM | ACHN 53 µM | OVCAR-4 33.8 µM | SN12C 51.9 µM | HT-29 70.3 µM | SK-MEL-2 87.5 µM | NCI-H460 52.4 µM | MOLT-4 26 µM | SR 34.2 µM

O=C(CC1=Nc2nnc(CCCCCCCc3nnc4n3C(=O)C(CC(=O)c3ccccc3)=N4)n2C1=O)c1ccccc1
inactive: TK-10 > 100 µM | HCT-116 > 100 µM | KM12 > 100 µM | UACC-257 > 100 µM | OVCAR-3 > 100 µM | SW-620 > 100 µM | HL-60 > 100 µM | RXF 393 > 100 µM | ACHN > 100 µM | SN12C > 100 µM | HT-29 > 100 µM | NCI-H460 > 100 µM | MOLT-4 > 100 µM | SR > 100 µM

O=c1[nH]c(=O)n(C2CC(O)C(CO)O2)cc1C#Cc1ccc(F)cc1 (stereo not given)
inactive: KM12 > 100 µM | UACC-257 > 100 µM | OVCAR-3 > 100 µM | SW-620 > 100 µM | ACHN > 100 µM | OVCAR-4 25.8 µM | SN12C > 100 µM | HT-29 > 100 µM | SK-MEL-2 > 100 µM | NCI-H460 > 100 µM | MOLT-4 > 100 µM | SR > 100 µM

N=C(N)NNC(=O)CCn1[nH]c(=O)c(Cl)c(Cl)c1=O
inactive: TK-10 > 100 µM | KM12 > 100 µM | UACC-257 > 100 µM | OVCAR-3 > 100 µM | SW-620 > 100 µM | HL-60 > 100 µM | RXF 393 > 100 µM | ACHN > 100 µM | OVCAR-4 > 100 µM | SN12C > 100 µM | HT-29 > 100 µM | SK-MEL-2 > 100 µM | NCI-H460 > 100 µM | MOLT-4 > 100 µM

Cc1ccc(NC(=O)CSc2nnc(-c3ccc(/N=C\c4ccc(Cl)cc4)cc3)o2)cc1
inactive: TK-10 > 100 µM | HCT-116 > 100 µM | KM12 > 100 µM | UACC-257 > 100 µM | SW-620 > 100 µM | HL-60 > 100 µM | RXF 393 > 100 µM | ACHN > 100 µM | OVCAR-4 > 100 µM | SN12C > 100 µM | HT-29 > 100 µM | SK-MEL-2 > 100 µM | NCI-H460 > 100 µM | MOLT-4 > 100 µM | SR > 100 µM

C=C=C(CC)C(C(=O)OC)N(CC)CC (stereo not given)
inactive: TK-10 > 100 µM | HCT-116 > 100 µM | KM12 > 100 µM | UACC-257 > 100 µM | OVCAR-3 > 100 µM | SW-620 > 100 µM | HL-60 > 100 µM | RXF 393 > 100 µM | ACHN > 100 µM | OVCAR-4 > 100 µM | SN12C > 100 µM | HT-29 > 100 µM | NCI-H460 > 100 µM | MOLT-4 > 100 µM | SR > 100 µM

O=C1[C@@H]2C(c3ccncc3)=NO[C@@H]2C(=O)N1c1ccc(Cc2ccc(N3C(=O)[C@H]4C(c5ccncc5)=NO[C@H]4C3=O)cc2)cc1
inactive: TK-10 > 100 µM | KM12 > 100 µM | UACC-257 > 100 µM | OVCAR-3 > 100 µM | SW-620 > 100 µM | HL-60 > 100 µM | RXF 393 > 100 µM | ACHN > 100 µM | OVCAR-4 > 100 µM | SN12C > 100 µM | HT-29 > 100 µM | SK-MEL-2 > 100 µM | NCI-H460 > 100 µM | MOLT-4 > 100 µM

O=C(Nc1ccn(CCI)c(=O)n1)c1ccccc1
inactive: TK-10 > 100 µM | HCT-116 > 100 µM | KM12 > 100 µM | UACC-257 > 100 µM | OVCAR-3 > 100 µM | SW-620 > 100 µM | HL-60 > 100 µM | RXF 393 > 100 µM | ACHN > 100 µM | OVCAR-4 > 100 µM | SN12C > 100 µM | HT-29 > 100 µM | SK-MEL-2 > 100 µM | NCI-H460 > 100 µM | SR > 100 µM

O=C1OC(c2ccccc2)=N/C1=C\c1ccc2ccccc2c1
inactive: TK-10 > 100 µM | HCT-116 > 100 µM | KM12 > 100 µM | UACC-257 > 100 µM | OVCAR-3 > 100 µM | SW-620 > 100 µM | RXF 393 > 100 µM | ACHN > 100 µM | OVCAR-4 > 100 µM | SN12C > 100 µM | HT-29 > 100 µM | SK-MEL-2 > 100 µM | NCI-H460 > 100 µM | MOLT-4 > 100 µM

CC(O)C(N/C=C1/N=C(c2ccccc2)OC1=O)C(=O)O (stereo not given)
inactive: TK-10 > 100 µM | HCT-116 > 100 µM | KM12 > 100 µM | UACC-257 > 100 µM | OVCAR-3 > 100 µM | SW-620 > 100 µM | HL-60 10 µM | RXF 393 > 100 µM | ACHN > 100 µM | OVCAR-4 > 100 µM | HT-29 > 100 µM | SK-MEL-2 > 100 µM | NCI-H460 > 100 µM

ONc1ncnc2[nH]cnc12
inactive: TK-10 > 100 µM | HCT-116 > 100 µM | KM12 > 100 µM | UACC-257 > 100 µM | OVCAR-3 > 100 µM | SW-620 > 100 µM | HL-60 14.7 µM | ACHN > 100 µM | OVCAR-4 > 100 µM | HT-29 > 100 µM | SK-MEL-2 > 100 µM | NCI-H460 > 100 µM | MOLT-4 > 100 µM | SR > 100 µM

OC(CCl)CN1CC[N+]2(CC1)CC[N+]1(CCN(CC(O)CCl)CC1)CC2 (stereo not given) [PROSPIDIUM CHLORIDE]
inactive: TK-10 > 50 µM | HCT-116 > 50 µM | KM12 > 50 µM | OVCAR-3 > 50 µM | SW-620 > 50 µM | HL-60 > 50 µM | RXF 393 > 50 µM | ACHN > 50 µM | OVCAR-4 > 50 µM | SN12C > 50 µM | HT-29 > 50 µM | SK-MEL-2 > 50 µM | NCI-H460 > 50 µM | MOLT-4 > 50 µM | SR > 50 µM
